Laboratory results taken from the Kinase Knowledgebase extract (Sharma et al. 2016).

How the values were obtained:
MAPK14 [1] = target: MAPK14 (UniProt Q16539)
MAPK14 [2] = target: MAPK14 (UniProt Q16539); remark: listed apart in the source
MAPK14 [3] = target: MAPK14 (UniProt Q16539); remark: listed apart in the source

MAPK14, sequence (Q16539 whole entry, looked up): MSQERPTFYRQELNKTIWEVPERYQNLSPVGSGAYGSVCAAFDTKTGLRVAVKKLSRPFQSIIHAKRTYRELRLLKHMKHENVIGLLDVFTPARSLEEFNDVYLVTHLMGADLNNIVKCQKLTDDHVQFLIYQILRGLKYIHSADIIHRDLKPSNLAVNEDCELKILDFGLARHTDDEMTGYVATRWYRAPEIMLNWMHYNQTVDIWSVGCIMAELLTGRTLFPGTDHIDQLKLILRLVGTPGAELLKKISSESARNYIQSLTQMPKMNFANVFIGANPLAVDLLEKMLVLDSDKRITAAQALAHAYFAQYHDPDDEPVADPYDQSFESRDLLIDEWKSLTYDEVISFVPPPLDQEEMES

For `Cc1ccc(Oc2cc(-c3c(-c4ccc(F)cc4)ncn3C3CCNCC3)ccn2)cc1`, which IC50 (MAPK14 [1]) is on record?
Its IC50 is < 50 µM.

Which results are given for `Cn1nnnc1Sc1cc(-c2c(-c3ccc(F)cc3)ncn2C2CCNCC2)ccn1`?
IC50 (MAPK14 [2]): < 50 µM; IC50 (MAPK14 [1]): < 50 µM; IC50 (MAPK14 [3]): < 50 µM

For `Fc1ccc(Oc2cc(-c3c(-c4ccc(F)cc4)ncn3C3CCNCC3)ccn2)cc1`, which IC50 (MAPK14 [2]) is on record?
The IC50 was < 50 µM.

What about the IC50 (MAPK14 [1]) of the same molecule?
The IC50 was < 50 µM.

What about the IC50 (MAPK14 [3]) of the same molecule?
The IC50 was < 50 µM.

For `Fc1ccc(-c2ncn(C3CCNCC3)c2-c2ccnc(Oc3ccc(Cl)cc3)c2)cc1`, which IC50 (MAPK14 [1]) is on record?
Its IC50 is < 50 µM.

How did the IC50 (MAPK14 [2]) turn out when `Fc1ccc(Oc2nccc(-c3c(-c4ccc(F)cc4)ncn3CCCN3CCOCC3)n2)cc1` was run?
Its IC50 is < 50 µM.

And the IC50 (MAPK14 [3])?
The IC50 was < 50 µM.

Which IC50 (MAPK14 [1]) does the source give for `Fc1ccc(-c2ncn(CCCN3CCOCC3)c2-c2ccnc(Oc3ccccc3)n2)cc1` here?
Its IC50 is < 50 µM.

What about the IC50 (MAPK14 [3]) of the same molecule?
The IC50 was < 50 µM.

Which IC50 (MAPK14 [2]) does the source give for `COc1ccc(Oc2cc(-c3c(-c4ccc(F)cc4)ncn3C3CCNCC3)ccn2)cc1` here?
Its IC50 is < 50 µM.

What about the IC50 (MAPK14 [1]) of the same molecule?
The IC50 was < 50 µM.

And the IC50 (MAPK14 [3])?
The IC50 was < 50 µM.

With `Fc1ccc(-c2ncn(C3CCNCC3)c2-c2ccnc(Oc3ccc(OCc4ccccc4)cc3)c2)cc1` as the molecule, how does the IC50 (MAPK14 [1]) read?
Its IC50 is < 50 µM.

How did the IC50 (MAPK14 [2]) turn out when `Fc1ccc(-c2ncn(C3CCNCC3)c2-c2ccnc(Oc3ccccc3)c2)cc1` was run?
The IC50 was < 50 µM.

And the IC50 (MAPK14 [1])?
The IC50 was < 50 µM.

And the IC50 (MAPK14 [3])?
Its IC50 is < 50 µM.

Which results are given for `Fc1ccc(-c2ncn(C3CCNCC3)c2-c2ccnc(Sc3ccccc3)c2)cc1`?
IC50 (MAPK14 [2]): < 50 µM; IC50 (MAPK14 [1]): < 50 µM
